Reference: US10508120B2, “TYK2 inhibitors and uses thereof” (Nimbus Lakshmi, Inc., priority 2017, dated 2019)
Read-outs that look alike come from different tables or passages of the source.

Experiments:
[1] = target: human TYK2 (JH2domain-pseudokinase) (Homo sapiens (Human), UniProt P29597); assay: TYK2 JH2 Domain Binding Assay (KINOMEscan)
In short: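 Kds, run in duplicate, came from Hill fits (slope fixed at −1) of an 11-point 3-fold dilution series starting at 30,000 nM. Bead-retained TYK2 JH2 (aa G556–D888)–NFkB DBD fusion, DNA-tagged and expressed in HEK293 cells, was read by qPCR after 1 h room-temperature binding in 0.9% DMSO.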

Tyk2 kinase domain (DH1) = Tyk2 kinase domain (DH1) (Homo sapiens (Human), UniProt P29597); assay: Tyk2 Radioactive Kinase Assay; type: biochemical; conditions: read-out: Tyk2 JH1% Inhibition @ 10 μM
Sequence of Tyk2 kinase domain (DH1) (P29597 897-1176): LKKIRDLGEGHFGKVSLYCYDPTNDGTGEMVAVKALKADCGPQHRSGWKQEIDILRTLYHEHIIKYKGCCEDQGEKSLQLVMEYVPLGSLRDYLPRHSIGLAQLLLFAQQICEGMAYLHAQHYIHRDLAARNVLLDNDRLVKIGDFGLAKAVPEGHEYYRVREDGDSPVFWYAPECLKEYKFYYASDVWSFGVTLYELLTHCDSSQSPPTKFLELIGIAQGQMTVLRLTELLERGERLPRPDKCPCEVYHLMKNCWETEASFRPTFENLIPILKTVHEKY
In short: (§1)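 Values are single-concentration percent inhibition figures. They were obtained with 10 μM compound in a radioactivity-based kinase assay run separately on each enzyme.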

JAK2 kinase domain (JH1) = JAK2 kinase domain (JH1) (Homo sapiens (Human), UniProt O60674); assay: JAK2 Radioactive Kinase Assay; type: biochemical; conditions: read-out: JAK2 JH1% Inhibition @ 10 μM
Sequence of JAK2 kinase domain (JH1) (O60674 849-1124): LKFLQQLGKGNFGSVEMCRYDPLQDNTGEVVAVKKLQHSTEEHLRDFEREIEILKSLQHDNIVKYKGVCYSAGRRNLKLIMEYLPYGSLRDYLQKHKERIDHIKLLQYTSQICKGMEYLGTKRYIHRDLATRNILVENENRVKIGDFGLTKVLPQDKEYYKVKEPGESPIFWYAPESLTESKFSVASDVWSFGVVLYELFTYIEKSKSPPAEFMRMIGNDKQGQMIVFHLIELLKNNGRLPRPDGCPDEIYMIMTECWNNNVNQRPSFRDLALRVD
In short: as §1

[2] = target: Tyk2/JAK2 (heterodimeric complex) (Homo sapiens (Human), UniProt P29597); assay: IL-12 Induced pSTAT4 in Human PBMC; type: cell-based; conditions: 1.7 ng/mL IL-12
Sequence of Tyk2/JAK2 (heterodimeric complex) (P29597 whole entry, other chains not shown): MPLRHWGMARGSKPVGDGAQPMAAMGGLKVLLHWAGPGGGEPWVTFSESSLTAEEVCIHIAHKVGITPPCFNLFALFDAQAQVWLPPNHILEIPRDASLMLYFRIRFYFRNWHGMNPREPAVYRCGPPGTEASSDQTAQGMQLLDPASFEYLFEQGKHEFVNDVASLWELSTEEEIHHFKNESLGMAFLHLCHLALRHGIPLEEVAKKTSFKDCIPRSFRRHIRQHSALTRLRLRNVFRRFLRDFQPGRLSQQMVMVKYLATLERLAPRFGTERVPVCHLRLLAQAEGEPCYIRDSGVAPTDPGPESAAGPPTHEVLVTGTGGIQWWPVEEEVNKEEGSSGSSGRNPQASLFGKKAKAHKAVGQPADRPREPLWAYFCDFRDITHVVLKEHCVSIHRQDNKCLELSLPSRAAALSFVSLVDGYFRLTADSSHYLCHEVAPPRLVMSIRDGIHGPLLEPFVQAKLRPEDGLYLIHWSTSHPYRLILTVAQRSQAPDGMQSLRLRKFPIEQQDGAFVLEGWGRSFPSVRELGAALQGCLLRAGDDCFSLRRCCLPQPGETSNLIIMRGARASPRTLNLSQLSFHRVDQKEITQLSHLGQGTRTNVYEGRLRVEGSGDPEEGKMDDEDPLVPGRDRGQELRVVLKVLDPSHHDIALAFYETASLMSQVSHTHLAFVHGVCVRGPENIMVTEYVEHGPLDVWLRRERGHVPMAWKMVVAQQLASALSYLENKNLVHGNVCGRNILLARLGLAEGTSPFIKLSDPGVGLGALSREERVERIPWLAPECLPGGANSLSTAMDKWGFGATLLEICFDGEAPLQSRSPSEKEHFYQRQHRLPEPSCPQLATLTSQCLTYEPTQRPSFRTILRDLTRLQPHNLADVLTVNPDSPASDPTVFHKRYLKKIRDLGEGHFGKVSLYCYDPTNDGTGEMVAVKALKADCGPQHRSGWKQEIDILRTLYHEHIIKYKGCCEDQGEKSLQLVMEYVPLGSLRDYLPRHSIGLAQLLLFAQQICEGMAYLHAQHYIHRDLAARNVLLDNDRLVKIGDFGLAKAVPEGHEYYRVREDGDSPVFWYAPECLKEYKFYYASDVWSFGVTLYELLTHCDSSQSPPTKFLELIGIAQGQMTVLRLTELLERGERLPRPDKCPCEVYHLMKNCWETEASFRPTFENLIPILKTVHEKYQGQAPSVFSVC
Text: The IL-12 Induced pSTAT4 assay evaluates the inhibition of IL-12 induced STAT4 phophorylation mediated by Tyk2/JAK2 (heterodimeric complex).

[3] = target: JAK2/JAK2 homdimeric complex (Homo sapiens (Human), UniProt O60674); assay: GM-CSF Induced pSTAT5 in Human PBMC; type: cell-based; conditions: GM-CSF 5 ng/mL for 20 minutes, pSTAT5 by MSD, read-out: PBMC_GMCSF_pSTAT5 IC50
Sequence of JAK2/JAK2 homdimeric complex (O60674 whole entry): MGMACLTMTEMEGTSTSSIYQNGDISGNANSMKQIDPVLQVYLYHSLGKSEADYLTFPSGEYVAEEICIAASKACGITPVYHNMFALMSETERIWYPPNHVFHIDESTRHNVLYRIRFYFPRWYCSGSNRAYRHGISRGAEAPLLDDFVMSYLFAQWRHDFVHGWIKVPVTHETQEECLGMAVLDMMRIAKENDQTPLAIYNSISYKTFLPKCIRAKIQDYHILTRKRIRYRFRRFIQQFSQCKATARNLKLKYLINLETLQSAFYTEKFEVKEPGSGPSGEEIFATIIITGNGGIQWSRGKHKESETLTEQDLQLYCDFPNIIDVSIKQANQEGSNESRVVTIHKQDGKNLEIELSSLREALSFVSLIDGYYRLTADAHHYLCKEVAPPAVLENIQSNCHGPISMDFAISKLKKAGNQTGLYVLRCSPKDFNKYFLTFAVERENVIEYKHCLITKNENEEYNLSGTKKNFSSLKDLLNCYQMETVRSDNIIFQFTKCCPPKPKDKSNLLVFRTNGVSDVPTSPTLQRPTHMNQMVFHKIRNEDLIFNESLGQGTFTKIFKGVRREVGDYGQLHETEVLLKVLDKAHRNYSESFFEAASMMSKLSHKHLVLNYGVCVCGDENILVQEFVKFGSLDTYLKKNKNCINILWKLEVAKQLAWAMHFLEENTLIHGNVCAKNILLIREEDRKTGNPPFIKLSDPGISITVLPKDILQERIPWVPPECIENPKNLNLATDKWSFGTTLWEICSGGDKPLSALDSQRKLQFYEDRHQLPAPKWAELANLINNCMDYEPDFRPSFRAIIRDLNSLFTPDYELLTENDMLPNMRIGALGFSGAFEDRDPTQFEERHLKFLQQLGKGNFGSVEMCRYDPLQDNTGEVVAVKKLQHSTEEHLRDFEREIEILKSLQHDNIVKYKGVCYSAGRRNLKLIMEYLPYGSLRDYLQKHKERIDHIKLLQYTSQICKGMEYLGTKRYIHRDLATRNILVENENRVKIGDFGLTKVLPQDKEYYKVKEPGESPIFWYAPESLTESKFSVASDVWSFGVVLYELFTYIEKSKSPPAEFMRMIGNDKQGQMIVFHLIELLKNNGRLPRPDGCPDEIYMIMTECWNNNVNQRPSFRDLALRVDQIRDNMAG
Sequence of JAK2/JAK2 homdimeric complex (P32927 17-897 partner): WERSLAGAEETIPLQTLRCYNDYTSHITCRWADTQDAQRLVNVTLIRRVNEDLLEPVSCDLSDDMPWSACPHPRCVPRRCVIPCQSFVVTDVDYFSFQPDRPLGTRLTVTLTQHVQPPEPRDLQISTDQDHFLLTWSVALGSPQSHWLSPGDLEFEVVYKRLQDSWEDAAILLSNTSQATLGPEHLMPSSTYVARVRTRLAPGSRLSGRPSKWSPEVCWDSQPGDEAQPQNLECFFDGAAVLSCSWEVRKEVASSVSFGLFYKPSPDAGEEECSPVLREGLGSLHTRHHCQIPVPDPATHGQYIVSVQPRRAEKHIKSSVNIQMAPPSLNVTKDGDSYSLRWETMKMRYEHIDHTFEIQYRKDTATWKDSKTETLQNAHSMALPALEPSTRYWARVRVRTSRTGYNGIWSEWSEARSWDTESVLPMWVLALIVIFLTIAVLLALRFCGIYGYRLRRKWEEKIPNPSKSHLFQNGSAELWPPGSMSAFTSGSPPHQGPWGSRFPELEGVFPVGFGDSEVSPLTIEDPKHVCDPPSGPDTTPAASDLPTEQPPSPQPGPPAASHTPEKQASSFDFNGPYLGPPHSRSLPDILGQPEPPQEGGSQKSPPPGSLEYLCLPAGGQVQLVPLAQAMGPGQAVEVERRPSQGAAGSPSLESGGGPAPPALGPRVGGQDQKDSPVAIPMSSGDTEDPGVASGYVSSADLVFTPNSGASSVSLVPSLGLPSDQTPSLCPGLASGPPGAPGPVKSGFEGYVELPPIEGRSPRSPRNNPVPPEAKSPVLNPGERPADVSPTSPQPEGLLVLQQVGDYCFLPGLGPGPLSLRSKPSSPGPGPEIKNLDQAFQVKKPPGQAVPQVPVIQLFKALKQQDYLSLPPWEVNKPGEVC

Sequence of human TYK2 (JH2domain-pseudokinase) (P29597 556-888): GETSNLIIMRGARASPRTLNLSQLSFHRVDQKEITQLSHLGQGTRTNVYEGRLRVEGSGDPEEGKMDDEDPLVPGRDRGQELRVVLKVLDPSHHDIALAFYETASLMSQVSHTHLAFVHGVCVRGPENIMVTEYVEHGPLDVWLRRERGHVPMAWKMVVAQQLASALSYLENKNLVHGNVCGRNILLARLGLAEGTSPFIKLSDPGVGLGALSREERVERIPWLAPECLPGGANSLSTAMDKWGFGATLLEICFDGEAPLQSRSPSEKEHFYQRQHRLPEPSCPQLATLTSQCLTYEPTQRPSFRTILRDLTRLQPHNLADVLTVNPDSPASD

| SMILES | Kd [1] [nM] | inhibition at 10 µM (Tyk2 kinase domain (DH1); compound at 10 μM, ATP 10 μM) [%] | inhibition at 10 µM (JAK2 kinase domain (JH1); compound at 10 μM, ATP 10 μM) [%] | IC50 [2] [nM] | IC50 [3] [nM] | inhibition at 10 µM (Tyk2 kinase domain (DH1); 10 μM compound, 10 μM ATP) [%] | inhibition at 10 µM (JAK2 kinase domain (JH1); 10 μM compound, 10 μM ATP) [%] |
| --- | --- | --- | --- | --- | --- | --- | --- |
| CNc1cc(Nc2cc(Cl)cn(-c3ccnc(C)n3)c2=O)nc2c(C(=O)N[C@H]3C[C@H]3F)cnn12 [I-317] | < 0.2 | < 50 | < 50 | < 100 | > 2500 |  |  |
| CNc1cc(Nc2cccn([C@H]3CC[C@H](OC)CC3)c2=O)nc2c(C(=O)N[C@H]3C[C@H]3F)cnn12 [I-344] | < 0.2 | < 50 | < 50 | < 100 | > 12500 |  |  |
| CNc1cc(Nc2cccn3ccnc23)nc2c(C(=O)NC3CC3)cnn12 [I-891] | < 0.2 |  |  | < 100 | > 50000 | < 50 | < 50 |
| CNc1cc(Nc2cccn([C@H]3CC[C@](C)(OC)CC3)c2=O)nc2c(C(=O)N[C@@H]3CC[C@@H]3O)cnn12 [I-670, N-(2-hydroxycyclobutyl)-5-((1-((1R,4S)-4-methoxy-4-methylcyclohexyl)-2-oxo-1,2-dihydropyridin-3-yl)amino)-7-(methylamino)pyrazolo[1,5-a]pyrimidine-3-carboxamide] | < 0.2 | < 50 | < 50 | < 100 | > 50000 |  |  |
| CNc1cc(Nc2cccn([C@H]3CC[C@H](OC)CC3)c2=O)nc2c(C(=O)N[C@H]3CC[C@H]3O)cnn12 [I-539] | < 0.2 | < 50 | < 50 | < 100 | > 50000 |  |  |
| CNc1cc(Nc2cc(F)cnc2OC2CC2)nc2c(C(=O)NC3CC3)cnn12 [I-274] | < 0.2 | < 50 | < 50 | < 100 | > 12500 |  |  |
| CNc1cc(Nc2cc(C)cc(C)c2)nc2c(C(N)=O)cnn12 [I-2, 5-((3,5-dimethylphenyl)amino)-7-(methylamino)pyrazolo[1,5-a]pyrimidine-3-carboxamide] | < 0.2 | < 50 | < 50 | < 100 | > 50000 |  |  |
| CNc1cc(Nc2cccc3ocnc23)nc2c(C(=O)N[C@H]3C[C@H]3F)cnn12 [I-592] | < 0.2 | < 50 | < 50 | < 100 | > 12500 |  |  |
| CNc1cc(Nc2cc(F)cn(-c3ccc(C)nn3)c2=O)nc2c(C(=O)N[C@H]3C[C@H]3F)cnn12 [I-198] | < 0.2 | < 50 | < 50 | < 100 | > 2500 |  |  |
| CNc1cc(Nc2cc(Cl)cn(-c3ccn(C)n3)c2=O)nc2c(C(=O)N[C@H]3C[C@H]3F)cnn12 [I-309] | < 0.2 | < 50 | < 50 | < 100 | > 12500 |  |  |
| CNc1cc(-c2cn(CCN3CCOCC3)c3ncccc23)nc2c(C(=O)N[C@H]3CC[C@@H]3OC)cnn12 [I-886] | < 0.2 |  |  | < 100 | > 300 | < 50 | < 50 |
| CNc1cc(Nc2cccn(C3CCCOC3)c2=O)nc2c(C(=O)NC3CCC3)cnn12 (racemic) [I-324] | < 0.2 | < 50 | < 50 | < 100 | > 50000 |  |  |
| CNc1cc(Nc2cccnc2OC2CC2)nc2c(C(=O)N[C@@H]3CC[C@H]3O)cnn12 (stereo in doubt) [I-366, 5-((2-cyclopropoxypyridin-3-yl)amino)-N-((1R,2R)-2-hydroxycyclobutyl)-7-(methylamino)pyrazolo[1,5-a]pyrimidine-3-carboxamide] | < 0.2 | < 50 | < 50 | < 100 | > 50000 |  |  |
| CNc1cc(Nc2cccn3ccnc23)nc2c(C(=O)N[C@@H]3C[C@@H]3F)cnn12 [I-892] | < 0.2 |  |  | < 100 | > 12500 | < 50 | < 50 |
| CNc1cc(Nc2cccc(N3CCCC3=O)n2)nc2c(C(=O)N[C@H]3C[C@H]3F)cnn12 [I-244] | < 0.2 | < 50 | < 50 | < 100 | > 12500 |  |  |
| CNc1cc(Nc2cc(F)cc(F)c2F)nc2c(C(=O)NC3CC3)cnn12 [I-5] | < 0.2 | < 50 | < 50 | < 100 | > 50000 |  |  |
